The subject of data set [1] is RAW264.7. Kind of data set: Anti-inflammatory activity in mouse RAW264.7 cells assessed as inhibition of LPS-induced ROS production measured after 4 hrs by H2DCFDA-AM probe based fluorescence assay. Type of data set: functional, cell-based. The note with it: for IC50: RAW264.7, 4 h.
The test system of data set [2] is RAW264.7. The data set is described as follows: Anti-inflammatory activity in mouse RAW264.7 cells assessed as inhibition of LPS-induced ROS production at 30 uM measured after 4 hrs by H2DCFDA-AM probe based fluorescence assay. Type of data set: functional, cell-based.
Data set [3] relates to RAW264.7. The data set is described as follows: Anti-inflammatory activity in mouse RAW264.7 cells assessed as inhibition of LPS-induced IL-6 mRNA level at 30 uM preincubated for 30 mins followed by LPS stimulation measured after 4 hrs by RT-PCR method relative to control. It counts as functional.
Data set [4] concerns RAW264.7. The data set is described as follows: Anti-inflammatory activity in mouse RAW264.7 cells assessed as inhibition of LPS-induced NO production at 30 uM preincubated for 30 mins followed by LPS stimulation measured after 4 hrs by Griess assay relative to control. Type of data set: functional. In general terms: Nitrite, measured by Griess reagent, commonly stands in for NO production.

Data set [5] has as its system RAW264.7. The data set is described as follows: Anti-inflammatory activity in mouse RAW264.7 cells assessed as inhibition of LPS-induced IL-1beta mRNA level at 30 uM preincubated for 30 mins followed by LPS stimulation measured after 4 hrs by RT-PCR method relative to control. It counts as functional.
Data set [6] relates to RAW264.7. The data set is described as follows: Cytotoxicity against mouse RAW264.7 cells assessed as reduction in cell viability at 30 uM after 18 hrs by MTT assay. The settings on record: raw264.7, 18 h. It counts as cell-based.
For data set [7], the system named is RAW264.7. The data set is described as follows: Cytotoxicity against mouse RAW264.7 cells assessed as reduction in cell viability at 30 to 50 uM after 18 hrs by MTT assay. It counts as cell-based. The settings on record: raw264.7, 18 h. In general terms: Tetrazolium assays rely on reduction of a dye to a coloured formazan, in cell work by metabolically active cells.

In data set [8] the test system is RAW264.7. Kind of data set: Cytotoxicity against mouse RAW264.7 cells assessed as reduction in cell viability up to 30 uM after 18 hrs by MTT assay. Type of data set: cell-based. The settings on record: raw264.7, 18 h.
In data set [9] the test system is RAW264.7. The data set is described as follows: Cytotoxicity against mouse RAW264.7 cells assessed as reduction in cell viability at 30 uM after 1 hr by MTT assay. Type of data set: cell-based. The settings on record: raw264.7, 1 h.
The test system of data set [10] is RAW264.7. The data set is described as follows: Anti-inflammatory activity in mouse RAW264.7 cells assessed as inhibition of LPS-induced ROS production at 1 to 10 uM measured after 4 hrs by H2DCFDA-AM probe based fluorescence assay. Type of data set: functional, cell-based.
The nature of data set [11]: Cytotoxicity against mouse RAW264.7 cells assessed as cell viability at 30 uM after 18 hrs by MTT assay relative to control. Type of data set: cell-based. The note with it: read-out: Activity.
For data set [12], the system named is RAW264.7. The data set is described as follows: Cytotoxicity against mouse RAW264.7 cells assessed as reduction in cell viability after 18 hrs by MTT assay. It counts as cell-based. The note with it: raw264.7, 18 h.

Active and inactive are the calls of the source. The rule behind the calls is not given here.

Regarding `Oc1ccc2cc1Oc1ccc(cc1)CC/C=C\C(O)CC2` (centres undefined), in the data set with RAW264.7 [1], the half-inhibitory concentration (IC50) fell in the range of 30 to 50 µM. Moreover, the inhibition result with RAW264.7 [2] was “Active”. Besides, the inhibition at 30 µM in the data set with RAW264.7 [3] was more than 60%; in the data set with RAW264.7 [4], more than 80%; in the data set on RAW264.7 [5] it was 30 to 50%. Besides, the Activity result in the data set with RAW264.7 [6] is listed as “Non-Toxic”; with RAW264.7 [7] it was “Toxic”; in the data set with RAW264.7 [8], “Non-Toxic”.

As to `COc1ccc(CCCNC(=O)[C@@H](N)Cc2ccc(O)cc2)cc1Br`, the IC50 in the data set on RAW264.7 [1] came to 30 µM. For the same compound, the inhibition entry in the data set on RAW264.7 [2] is “Active”. Further, the inhibition at 30 µM in the data set with RAW264.7 [3] was more than 60%; in the data set on RAW264.7 [4], more than 80%; in the data set on RAW264.7 [5], 30 to 50%. Besides, the Activity entry in the data set on RAW264.7 [6], with RAW264.7 [7] and with RAW264.7 [8] was “Non-Toxic” in each case.

Consider `COc1ccc2cc1Oc1ccc(cc1)CCc1cn(nn1)CC2`, for which, in the data set with RAW264.7 [6], the Activity result is given as “Non-Toxic”.

Consider `COc1ccc2cc1Oc1ccc(cc1)C[C@H](N)C(=O)NCCC2`, for which, in the data set on RAW264.7 [1], the IC50 amounted to 30 µM. Further, the inhibition entry with RAW264.7 [2] was “Active”. For the same compound, the inhibition at 30 µM in the data set on RAW264.7 [3] was more than 60%; with RAW264.7 [4], more than 80%; with RAW264.7 [5], 30 to 50%. Besides, the Activity result in the data set with RAW264.7 [6], in the data set on RAW264.7 [7] and in the data set on RAW264.7 [8] was “Non-Toxic” each time.

For the compound `COc1ccc(CCC(O)/C=C\CCc2ccc(O)cc2)cc1Br` (centres undefined), the inhibition result in the data set on RAW264.7 [2] was “Active”. Also, the Activity entry in the data set on RAW264.7 [6] is given as “Toxic”; in the data set on RAW264.7 [9], “Non-Toxic”.

With `COc1ccc2cc1Oc1ccc(cc1)CCC(=O)NCCC2`, the Activity result in the data set with RAW264.7 [6] is reported as “Non-Toxic”.

For `COc1ccc(CCn2cc(CCc3ccc(O)cc3)nn2)cc1Br`, the Activity entry in the data set on RAW264.7 [6] is reported as “Non-Toxic”.

For `COc1ccc2cc1Oc1ccc(cc1)CC/C=C\C(O)CC2` (centres undefined), in the data set with RAW264.7 [6], the Activity result is recorded as “Non-Toxic”.

Consider `Cc1c(C)c2c(c(C)c1O)CCC(C)(C(=O)O)O2` (centres undefined) [TROLOX], for which, in the data set on RAW264.7 [1], the inhibition result is “Dose-dependent effect” and the IC50 is 30 µM. The Activity result in the data set with RAW264.7 [6] is listed as “Non-Toxic”.

As to `Oc1ccc2cc1Oc1ccc(cc1)CC/C=C\C=C\C2`, the inhibition result in the data set on RAW264.7 [10] was “inactive”. For the same compound, in data set [11], the viability at 18 h, 30 µM is less than 60%. Besides, the IC50 in the data set with RAW264.7 [1] was 30 µM. In addition, the inhibition result with RAW264.7 [2], in the data set with RAW264.7 [3] and with RAW264.7 [5] was “Active” in each case. In the data set on RAW264.7 [4], the inhibition at 30 µM was more than 65%. Further, the Activity entry is given as “Dose-dependent effect” in the data set on RAW264.7 [12] and “Non-Toxic” in the data set on RAW264.7 [9].

Regarding `COc1ccc(CCCNC(=O)CCc2ccc(O)cc2)cc1Br`, the IC50 in the data set with RAW264.7 [1] fell in the range of 30 to 50 µM. The inhibition result in the data set with RAW264.7 [2] is “Active”. For the same compound, the inhibition at 30 µM in the data set on RAW264.7 [3] is more than 60%; in the data set with RAW264.7 [4], more than 80%; in the data set on RAW264.7 [5], 30 to 50%. Further, the figures for the Activity result with RAW264.7 [6], in the data set on RAW264.7 [7] and in the data set with RAW264.7 [8] were “Non-Toxic”, “Toxic” and “Non-Toxic”, respectively.

Regarding `N[C@H]1Cc2ccc(cc2)Oc2cc(ccc2O)CCCNC1=O`, the inhibition entry with RAW264.7 [2] was “inactive”. In addition, the Activity entry in the data set on RAW264.7 [6] was “Non-Toxic”.

As for `O=C1N[C@H]2Cc3ccc(cc3)Oc3cc(ccc3O)CCCN1C2=O`, the Activity entry in the data set on RAW264.7 [6] was “Non-Toxic”.

Consider `Oc1ccc2cc1Oc1ccc(cc1)CCc1cn(nn1)CC2`, for which the Activity result with RAW264.7 [6] is listed as “Non-Toxic”.

For `O=C1CCc2ccc(cc2)Oc2cc(ccc2O)CCCN1`, the half-maximal inhibitory concentration (IC50) in the data set on RAW264.7 [1] was 30 to 50 µM. Moreover, the inhibition entry in the data set with RAW264.7 [2] is “Active”. For the same compound, the inhibition at 30 µM in the data set on RAW264.7 [3] is more than 60%; with RAW264.7 [4] it was 65%; in the data set with RAW264.7 [5] it was 30 to 50%. The Activity result with RAW264.7 [6], with RAW264.7 [7] and in the data set with RAW264.7 [8] was “Non-Toxic” each time.

Consider `COc1ccc2cc1Oc1ccc(cc1)C[C@@H]1NC(=O)N(CCC2)C1=O`, for which the Activity entry in the data set on RAW264.7 [6] was “Non-Toxic”.

For orientation: IC50 means the concentration needed to halve the response being measured. Broadly, the inhibition is the share of the control response that was lost under treatment.

The values above are taken from ChEMBL document CHEMBL4251613, “Synthesis and biological evaluation of diarylheptanoids as potential antioxidant and anti-inflammatory agents” (Eur J Med Chem, 2018).
